# Reference: patent US20080153794A1, “Medicaments and methods for wound healing” (RENOVO LIMITED, priority 2006, published 2008)
# Key:
# [1] = tested on: full thickness cutaneous excisional wounds (punch biopsies); assay: Human 3 mm punch biopsy wounds: re-epithelialisation; format: in vivo, humans; settings: single 100 μl intradermal dose 10-30 minutes before wounding, day 3, 44 wounds
# Description: Medicaments of the invention were prepared using the constituents described above. […] 44 healthy subjects were recruited to the study, of whom, 40 were healthy males (aged 18-75 years) and 4 were post-menopausal females (aged 53-69 years). The average age of subjects recruited to this study was 42 years. The post-menopausal status of female subjects was confirmed by quantification of serum levels of oestradiol and follicle stimulating hormone (FSH). Serum levels of oestradiol were required to be […], and follicle stimulating hormone levels >31 IU/L. Each subject had four wounds treated with active drug, one corresponding to each of four concentrations of the medicaments produced. The test medicaments were each administered intradermally as a single dose at a volume of 100 μl (sufficient to treat 1 cm^2 of skin) per wound site (the upper, inner aspect of each arm), 10-30 minutes before wounding. Subjects received 3 mm punch biopsies at the sites where the medicaments had been administered. After wounding, all sites received moist wound healing dressings (Standard Care). Biopsy sites were excised, using a 5 mm punch biopsy, three days after wounding. […] Percentage re-epithelialisation for the new epithelium was calculated as a proportion of the total wound diameter. The average percentage re-epithelialisation value was calculated from the 44 wounds of each treatment group.
# [2] = tested on: full thickness excisional wounds (punch biopsies); assay: Rat full thickness excisional wound model (study 3): re-epithelialisation at test concentrations, injection 20 minutes before wounding; format: in vivo, adult male Sprague-Dawley rats; settings: intradermal 20 minutes before wounding, day 3, five rats
# Text: Animals were killed, and their wounds harvested, three days after wounding. The wounds were excised and treated for histology. […] All histological assessments of early wound healing events were made using preserved 5 micron-thickness wound sections taken from the widest part of each excised biopsy site. Sections were stained with Haematoxylin and Eosin to aid visualisation of structural features, and measurements made using image analysis software. The distance traveled by the epithelium is derived from two histological measurements: the freehand total wound diameter and the freehand non-epithelialised wound diameter. The non-epithelialised diameter is subtracted from the total wound diameter, to determine the distance which the new epithelium has covered since the time of wounding. Percentage re-epithelialisation for the new epithelium was calculated as a proportion of the total wound diameter. The average percentage re-epithelialisation value was calculated from the wounds of the […] within each treatment group. […] 100 μl of the medicament to be tested was administered by intradermal injection at sites on the dorsal surface of experimental rats, 20 minutes prior to formation of a full thickness punch biopsy at the injected site. One injection and excisional wound was made per animal, and five adult male Sprague-Dawley rats used per treatment group. Acceleration of wound healing achieved using the test concentrations of the medicaments of the invention was investigated using the protocols set out under 1.1.4 above.
# partial thickness wounds = assay: Pig partial thickness wound healing model (model of split thickness skin graft donor sites); format: in vivo, male Large White pigs; settings: 100 μl per cm^2 intradermal, five days after wounding, four pigs
# Description: Test medicaments were administered by intradermal injection to provide 100 μl of medicament per cm^2 to sites on experimental pigs where wounds were to be formed. Thus a total volume of 625 μl of the test medicament was administered per wound site. After administration of the medicaments 2.5 cm by 2.5 cm (6.25 cm^2) partial thickness wounds were made using a 25 mm dermatome (Nouvag) at a depth setting of 0.55 mm. A single wound was treated per animal, and each treatment group comprised four male Large White pigs. Animals were killed, and their wounds harvested, five days after wounding. The wounds were excised and treated for histology. […] After being allowed fixed for 48 hours wounded tissue was bisected into four even sections. All bisected sections were processed to wax and embedded into individual wax blocks. Tissue was sectioned through to the end of the block where at every 250 μm, a single slide containing a 5 μm thick section was prepared. […] For each section, the freehand epithelialised and freehand non-epithelialised distances were measured using image analysis; freehand epithelialised distance as a proportion of the sum of the epithelialised and non-epithelialised distances was calculated to produce a percentage re-epithelialisation value. Average percentage re-epithelialisation values were calculated per wound and per treatment group.
# [3] = 0.1 μg 17β-oestradiol/100 μl of medicament (0.0001% w/v)
smiles,measurement,setting,value
C[C@]12CC[C@@H]3c4ccc(O)cc4CC[C@H]3[C@@H]1CC[C@@H]2O [17β-oestradiol],acceleration of re-epithelialisation (in words),[1]; [3],particularly preferable ability to induce acceleration of re-epithelialisation
same,acceleration of re-epithelialisation (in words),[1]; 0.2 μg 17β-oestradiol/100 μl of medicament (0.0002% w/v),particularly preferable ability to induce acceleration of re-epithelialisation
same,re-epithelialisation,[2]; 0.001 μg 17β-oestradiol/100 μl of medicament (0.000001% w/v),23.02%
same,re-epithelialisation,[2]; 0.01 μg 17β-oestradiol/100 μl of medicament (0.00001% w/v),29.03%
same,re-epithelialisation,[2]; [3],29.95%
same,re-epithelialisation,[2]; 1 μg 17β-oestradiol/100 μl of medicament (0.001% w/v),14.63%
same,re-epithelialisation,[2]; 10 μg 17β-oestradiol/100 μl of medicament (0.01% w/v),10.30%
same,re-epithelialisation,partial thickness wounds; 0.1 μg 17β-oestradiol/100 μl of medicament,98.15%
same,re-epithelialisation,partial thickness wounds; 0.2 μg 17β-oestradiol/100 μl of medicament,98.56%
